Test results as given in ChEMBL document CHEMBL1133237, “Enhanced binding of aminoglycoside dimers to a "dimerized" A-site 16S rRNA construct” (Bioorg Med Chem Lett, 2000).

Experiments:
Nucleic Acid [1] = test: Dissociation constant towards 16S rRNA construct B; type: nucleic-acid assay
Nucleic Acid [2] = test: Dissociation constant towards 16S rRNA construct A; type: nucleic-acid assay

SMILES	Kd (Nucleic Acid [1]) [nM]	Kd (Nucleic Acid [2]) [nM]
NC[C@@H]1O[C@H](O[C@H]2[C@@H](O)[C@H](O[C@@H]3[C@@H](O)[C@H](N)C[C@H](N)[C@H]3O[C@H]3O[C@H](CN)[C@@H](O)[C@H](O)[C@H]3N)O[C@@H]2CO)[C@H](N)[C@@H](O)[C@@H]1O [FRAMYCETIN]	380	440
NC[C@H]1O[C@H](O[C@H]2[C@H](O)[C@@H](O[C@H]3O[C@H](CSCCOCCSSCCOCCSC[C@H]4O[C@H](O[C@@H]5[C@@H](O)[C@H](O[C@H]6O[C@H](CN)[C@@H](O)C[C@H]6N)[C@@H](N)C[C@H]5N)[C@H](O)[C@@H](N)[C@@H]4O)[C@@H](O)[C@H](N)[C@H]3O)[C@H](N)C[C@@H]2N)[C@H](N)C[C@@H]1O [Tobramycin-Tobramycin]	1810	1780
NC[C@H]1O[C@H](O[C@H]2[C@H](O)[C@@H](O[C@H]3O[C@H](CO)[C@@H](O)[C@H](N)[C@H]3O)[C@H](N)C[C@@H]2N)[C@H](N)C[C@@H]1O [TOBRAMYCIN]	1680	2110
NCC1O[C@H](O[C@H]2[C@@H](O)[C@H](O[C@H]3[C@H](O)[C@@H](N)C[C@@H](N)[C@@H]3O[C@H]3O[C@H](CN)[C@@H](O)[C@H](O)[C@H]3N)O[C@@H]2CSCCOCCSSCCOCCSC[C@H]2O[C@H](O[C@@H]3[C@@H](O)[C@H](O[C@H]4O[C@H](CN)[C@@H](O)C[C@H]4N)[C@@H](N)C[C@H]3N)[C@H](O)[C@@H](N)[C@@H]2O)[C@H](N)[C@@H](O)[C@@H]1O (stereo not given in full)	290	410
NCC1O[C@H](O[C@H]2[C@@H](O)[C@H](O[C@H]3[C@H](O)[C@@H](N)C[C@@H](N)[C@@H]3O[C@H]3O[C@H](CN)[C@@H](O)[C@H](O)[C@H]3N)O[C@@H]2CSCCOCCSSCCOCCSC[C@H]2O[C@@H](O[C@H]3[C@H](O)[C@@H](N)C[C@@H](N)[C@@H]3O[C@H]3O[C@H](CN)[C@@H](O)[C@H](O)[C@H]3N)[C@H](O)[C@@H]2O[C@@H]2OC(CN)[C@H](O)[C@@H](O)[C@@H]2N)[C@H](N)[C@@H](O)[C@@H]1O (stereo not given in full)	20	320
